The values below are quoted from earlier work in patent publication US12115139B2, “Treatment methods and processes for an infected nail” (priority 2018, dated 2024).

Several values for one entry are separate records, joined by “and”; a condition that tells them apart may be missing. Identical values can stand only once. Counter-ions that a name gives are not always drawn.

This series relates to nail infections. Particulars: for side effects compared with Lamisil: oral treatment.

As for `C[C@@H](n1cnc2cc(Cl)ccc2c1=O)[C@](O)(Cn1cncn1)c1ccc(F)cc1F` [Albaconazole], the “side effects compared with Lamisil” value was “fewer side effects”.

As for `CCC(C)(C)c1ccc(CC(C)CN2C[C@@H](C)O[C@@H](C)C2)cc1` (stereo partly shown) [Amorolfine, amorolfine], the “effectiveness against severe nail infections” value (topical, severe nail infections involving the nail bed) is “not effective”.

As for `Cc1cc(C2CCCCC2)n(O)c(=O)c1` [Ciclopirox, ciclopirox], the cure rate result (topical, 8% strength) was “about 8.5%”.

As for `CN(C/C=C/C#CC(C)(C)C)Cc1cccc2ccccc12` [Lamisil, terbinafine hydrochloride], the mycological cure rate (oral treatment of nail infections) is 46%.

`CC[C@@H]([C@H](C)O)n1ncn(-c2ccc(N3CCN(c4ccc(OC[C@@H]5CO[C@@](Cn6cncn6)(c6ccc(F)cc6F)C5)cc4)CC3)cc2)c1=O` [Posaconazole]: the “side effects compared with Lamisil” value is listed as “fewer side effects”.

With `OB1OCc2cc(F)ccc21` [Tavaborole, tavaborole], under “topical, share of the 600 patients in the study”, the complete cure is on record as 6%.

On to `C=C1CCN([C@H](C)[C@](O)(Cn2cncn2)c2ccc(F)cc2F)CC1` [efinaconazole], for which, under “topical, only mild infections not involving the nail bed”, the cure rates was 17.8% and 15.2%.
